Results taken from ChEMBL document CHEMBL5338788, “Discovery of a New-Generation S-Adenosylmethionine-Noncompetitive Covalent Inhibitor Targeting the Lysine Methyltransferase Enhancer of Zeste Homologue 2” (J Med Chem, 2023).
Calls of active or inactive are those of the source. The rule behind the calls is not given here.

What was measured:
[1] = target: Histone-lysine N-methyltransferase EZH2 (Homo sapiens, UniProt Q15910, Y641F); test: Inhibition of N-terminal FLAG-tagged recombinant full-length human EZH2 Y641F mutant in PRC2 complex expressed in baculovirus infected Sf9 cells using H3K27me0 biotin/SAM as substrate preincubated for 10 mins followed by substrate addition measured after 4 hrs by HTRF assay; type: cell-based
[2] = system: Pfeiffer; test: Downregulation of H3K27me3 level in human Pfeiffer cells at 1 uM incubated for 96 hrs followed by compound washout measured after 48 hrs by Western blot analysis; type: functional, cell-based; settings: time 144.0 hrs
[3] = system: KARPAS-422; test: Antiproliferative activity against human KARPAS-422 cells expressing EZH2 Y641N mutant assessed as inhibition of cell proliferation incubated for 6 days by CCK8 assay; type: functional, cell-based; settings: KARPAS-422, 144 h
[4] = system: Pfeiffer; test: Antiproliferative activity against human Pfeiffer cells expressing EZH2 […] mutant assessed as inhibition of cell proliferation incubated for 6 days by CCK8 assay; type: functional, cell-based; settings: 144 h
[5] = Metabolic stability in human liver microsomes assessed as half life preincubated for 10 mins followed by NADPH addition measured upto 60 mins by LC-MS/MS analysis; type: ADME, Microsome; settings: time < 70 min
[6] = Apparent permeability in human Caco-2 cells at 20 uM measured for 35 to 95 mins by LC-MS/MS analysis; type: ADME, cell-based; settings: time 35-95 min
[7] = Antiproliferative activity against human WILL-1 cells expressing wild-type EZH2 assessed as inhibition of cell proliferation incubated for 6 days by CCK8 assay; type: functional, cell-based; settings: WILL-1, 144 h
[8] = system: Pfeiffer; test: Antiproliferative activity against human Pfeiffer cells expressing EZH2 mutant assessed as inhibition of cell proliferation incubated for 6 days by CCK8 assay; type: functional, cell-based; settings: time 6.0 day
[9] = system: KARPAS-422; test: Antiproliferative activity against human KARPAS-422 cells expressing EZH2 mutant assessed as inhibition of cell proliferation incubated for 6 days by CCK8 assay; type: functional, cell-based; settings: time 6.0 day
[10] = system: RL; test: Antiproliferative activity against human RL cells expressing EZH2 mutant assessed as inhibition of cell proliferation incubated for 6 days by CCK8 assay; type: functional, cell-based
[11] = system: SU-DHL-2; test: Antiproliferative activity against human SUDHL2 cells expressing EZH2 mutant assessed as inhibition of cell proliferation incubated for 6 days by CCK8 assay; type: functional, cell-based; settings: SU-DHL-2, 144 h
[12] = system: SU-DHL10; test: Antiproliferative activity against human SU-DHL-10 cells expressing EZH2 mutant assessed as inhibition of cell proliferation incubated for 6 days by CCK8 assay; type: functional, cell-based; settings: time 6.0 day
[13] = system: Karpas-1106P; test: Antiproliferative activity against human KARPAS-1106P cells expressing wild-type EZH2 assessed as inhibition of cell proliferation incubated for 6 days by CCK8 assay; type: functional, cell-based
[14] = system: DB; test: Antiproliferative activity against human DB cells expressing wild-type EZH2 assessed as inhibition of cell proliferation incubated for 6 days by CCK8 assay; type: functional, cell-based; settings: 144 h
[15] = system: WSUDLCL2; test: Antiproliferative activity against human WSUDLCL2 cells expressing wild-type EZH2 assessed as inhibition of cell proliferation incubated for 6 days by CCK8 assay; type: functional, cell-based; settings: WSUDLCL2, 144 h
[16] = system: U2932; test: Antiproliferative activity against human U2932 cells expressing wild-type EZH2 assessed as inhibition of cell proliferation incubated for 6 days by CCK8 assay; type: functional, cell-based; settings: U2932, 144 h
[17] = system: HT; test: Antiproliferative activity against human HT cells expressing wild-type EZH2 assessed as inhibition of cell proliferation incubated for 6 days by CCK8 assay; type: functional, cell-based; settings: 144 h
[18] = system: OPM-2; test: Antiproliferative activity against human OPM-2 cells expressing wild-type EZH2 assessed as inhibition of cell proliferation incubated for 6 days by CCK8 assay; type: functional, cell-based; settings: OPM-2, 144 h

Histone-lysine N-methyltransferase EZH2, sequence (Q15910 whole entry Y641F): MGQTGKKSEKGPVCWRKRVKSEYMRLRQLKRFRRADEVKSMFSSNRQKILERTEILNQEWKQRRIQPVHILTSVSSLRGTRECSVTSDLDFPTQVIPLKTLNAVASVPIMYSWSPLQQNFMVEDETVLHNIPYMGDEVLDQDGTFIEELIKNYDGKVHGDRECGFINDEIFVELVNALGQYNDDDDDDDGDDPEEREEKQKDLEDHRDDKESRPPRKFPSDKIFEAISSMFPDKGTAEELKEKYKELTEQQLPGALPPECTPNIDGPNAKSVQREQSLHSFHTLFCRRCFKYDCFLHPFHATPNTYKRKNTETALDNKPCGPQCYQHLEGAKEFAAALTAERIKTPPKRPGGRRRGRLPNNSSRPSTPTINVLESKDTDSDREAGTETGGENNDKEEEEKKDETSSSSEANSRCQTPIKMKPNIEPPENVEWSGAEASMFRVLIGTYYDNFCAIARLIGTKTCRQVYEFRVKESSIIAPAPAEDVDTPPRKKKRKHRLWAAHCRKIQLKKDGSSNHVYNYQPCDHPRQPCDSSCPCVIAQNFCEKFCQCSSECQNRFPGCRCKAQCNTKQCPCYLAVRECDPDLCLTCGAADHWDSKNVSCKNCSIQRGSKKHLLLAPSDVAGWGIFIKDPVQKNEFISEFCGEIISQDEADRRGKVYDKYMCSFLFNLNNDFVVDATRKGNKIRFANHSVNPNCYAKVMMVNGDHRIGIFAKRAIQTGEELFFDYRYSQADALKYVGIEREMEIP

| SMILES | IC50 [1] [nM] | IC50 [3] [nM] | IC50 [4] [nM] | further results |
| --- | --- | --- | --- | --- |
| C=C(C)C(=O)Nc1cc(C(=O)NCc2c(C)cc(C)[nH]c2=O)c(C)c(N(CC)C2CCOCC2)c1 | 38 |  |  |  |
| CC[C@H](C)n1cc(C)c2c(C(=O)NCc3c(C)cc(C)[nH]c3=O)cc(-c3ccc(N4CCNCC4)nc3)cc21 |  |  |  | Activity [2]: inactive |
| C=CC(=O)NCc1cc(C(=O)NCc2c(C)cc(C)[nH]c2=O)c(C)c(N(CC)C2CCOCC2)c1 | 39 | 542 | 194 | half-life [5]: 24 min |
| CC#CC(=O)Nc1cc(C(=O)NCc2c(C)cc(C)[nH]c2=O)c(C)c(N(CC)C2CCOCC2)c1 | 11 |  |  |  |
| C=CC(=O)NCc1cc(C(=O)NCc2c(OC)cc(C)[nH]c2=O)c(C)c(N(CC)C2CCOCC2)c1 | 9 | 1440 | 314 | half-life [5]: 35.3 min |
| CCC(=O)Nc1cc(C(=O)NCc2c(C)cc(C)[nH]c2=O)c(C)c(N(CC)C2CCOCC2)c1 | 38 | > 3000 | 1950 |  |
| C=CC(=O)NCc1cc(C(=O)NCc2c(CCC)cc(C)[nH]c2=O)c(C)c(N(CC)C2CCOCC2)c1 | 4 | > 3000 | 1350 |  |
| C=CC(=O)Nc1cc(C(=O)NCc2c(C)cc(C)[nH]c2=O)c(C)c(N(CC)C2CCOCC2)c1 | 10 | > 3000 | 974 | half-life [5]: 9.4 min; Papp at 20 µM [6]: 0.045 ×10⁻⁶ cm/s |
| CCN(c1cc(NC(=O)/C=C/CN(C)C)cc(C(=O)NCc2c(C)cc(C)[nH]c2=O)c1C)C1CCOCC1 | 36 |  |  |  |
| CCC(=O)NCc1cc(C(=O)NCc2c(SC)cc(C)[nH]c2=O)c(C)c(N(CC)C2CCOCC2)c1 | 134 | 708 | 147 | Activity [2]: inactive; IC50 [7]: > 3000 nM; inhibition [8]: Active; inhibition [9]: Active; IC50 ([10]; 144 h): > 3000 nM; IC50 [11]: > 3000 nM; inhibition [12]: Active; IC50 ([13]; 144 h): > 3000 nM; IC50 [14]: > 3000 nM; IC50 [15]: > 3000 nM; IC50 [16]: > 3000 nM; IC50 [17]: > 3000 nM; IC50 [18]: > 3000 nM |
| C=CC(=O)N(C)c1cc(C(=O)NCc2c(C)cc(C)[nH]c2=O)c(C)c(N(CC)C2CCOCC2)c1 | 35 | 587 | 195 | half-life [5]: 12.7 min; Papp at 20 µM [6]: 0.054 ×10⁻⁶ cm/s |
| CCN(c1cc(NC(=O)/C=C/CN2CCOCC2)cc(C(=O)NCc2c(C)cc(C)[nH]c2=O)c1C)C1CCOCC1 | 21 |  |  |  |
| CCC(=O)N(C)c1cc(C(=O)NCc2c(C)cc(C)[nH]c2=O)c(C)c(N(CC)C2CCOCC2)c1 | 50 | > 3000 | 2530 |  |
| C=CS(=O)(=O)Nc1cc(C(=O)NCc2c(C)cc(C)[nH]c2=O)c(C)c(N(CC)C2CCOCC2)c1 | 173 |  |  |  |
| C/C=C/C(=O)Nc1cc(C(=O)NCc2c(C)cc(C)[nH]c2=O)c(C)c(N(CC)C2CCOCC2)c1 | 21 |  |  |  |
| CCC(=O)NCc1cc(C(=O)NCc2c(C)cc(C)[nH]c2=O)c(C)c(N(CC)C2CCOCC2)c1 | 137 | > 3000 | > 3000 |  |
| CCN(c1cc(-c2ccc(CN3CCOCC3)cc2)cc(C(=O)NCc2c(C)cc(C)[nH]c2=O)c1C)C1CCOCC1 [TAZEMETOSTAT] |  | 294 | 34 | half-life [5]: 20.2 min; Papp at 20 µM [6]: 1.06 ×10⁻⁶ cm/s; Activity [2]: inactive; IC50 [7]: > 3000 nM; inhibition [8]: Active; inhibition [9]: Active; inhibition ([10]; time 6.0 day): Active; IC50 [11]: > 3000 nM; inhibition [12]: Active; inhibition ([13]; time 6.0 day): Active; IC50 [14]: > 3000 nM; IC50 [15]: > 3000 nM; IC50 [16]: > 3000 nM; IC50 [17]: > 3000 nM; IC50 [18]: > 3000 nM |
